Assay [1] relates to patient with reduced renal function. To be noted: on the doses of '114 (maximum 120 mg/kg/day); improved from 29 mL/min; cited from earlier work.
The test system of assay [2] is patient with fibromyalgia. In words: fibromyalgia pain. In kind it is in vivo, human. The settings on record: 300 mg/kg per day. The procedure: Yet another effect was alleviation of fibromyalgia: The pain was reduced by about 95% at 300 mg/kg of famciclovir per day.
Assay [3] has as its system patient with nutcracker esophagus. The assay is described as follows: nutcracker esophagus spasms. Type of assay: in vivo, human. To be noted: 300 mg/kg per day. The source says: Another condition experienced by the patient related to muscle spasms referred to as the “nutcracker esophagus.” This condition involves very painful spasms of the esophagus caused by food touching the hypersensitive “trigger points” inside the esophagus. These spasms can persist from minutes to hours. […] The condition recurs within a few hours when the drug is stopped.

Assay [4] concerns herpes-infected patient with kyphosis. The assay is described as follows: kyphosis. The settings on record: 300 mg/kg per day. In kind it is in vivo, human. The procedure:
Another condition observed in a herpes-infected patient was kyphosis or abnormal curvature of the upper spine. Generally, kyphosis is thought to result from habitual poor posture. However, kyphosis is sometimes caused by abnormal contraction of some spinal muscles. When the patient received 300 mg/kg of famciclovir per day, their posture improved as the contracted spinal muscles relaxed.

Assay [5] relates to patient with irritable bowel syndrome. The assay is described as follows: irritable bowel syndrome signs or symptoms. Type of assay: in vivo, human. The source says:
(§1) This example sets forth the treatment of a patient with signs or symptoms of disease associated with reduced blood flow to an organ or tissue (correlated with hypertonicity of the associated blood vessels) using high doses of famciclovir, a compound of Formula (II) where B is H and each of R1 and R2 is CH3C(O)—, at a level and under conditions as explained below.
(§2) A patient weighing about 100 kg having multiple signs or symptoms of autoimmune disease had been ingesting famciclovir for several years at about 10 g per day taken 4 times daily during a 24 hour period. While the subject's condition was tolerable, they were in a regular state of pain in the joints and had other signs or symptoms discussed below.
The patient also presented with irritable bowel syndrome (IBS) signs or symptoms, such as severe distention, cramps and pain spasms. After increasing intake of famciclovir to a maintenance level of 300 mg/kg per day, the patient experienced a dramatic improvement. […] The distended waist circumference was reduced from 44 inches to 38 inches over a period of days, and pain was about 90% relieved. Since the patient experienced no weight loss, the reduction in distention was due to the relief of bowel spasms.

The test system of assay [6] is patient with cranial nerve palsy. The assay is described as follows: cranial nerve palsy (loss of control of soft palate) and loss of sympathetic nerve function. In kind it is in vivo, human. The source says:
The loss of sympathetic nerve functions, can occur with a loss of control of some function of some autonomic muscles, or loss of sensation or both. This is not as common as 1 through 6, above. And, the effects are usually not as severe. One example is the loss of control of the soft palate, either partial or complete which can cause severe snoring, and is part of the sleep apnea syndrome, and also can cause a snorting sound when talking or laughing, or can cause food to get caught under the soft palate. Another condition is cranial nerve palsies as discussed in the Sixteenth Edition of the Merck Manual at page 2395. […] This new treatment effectively suppresses all of these conditions, and in at least one patient return of most lost function of the soft palate has occurred. In another there was significant return of anal sphincter tone with these doses which had been previously lost on the doses of '114.
A patient was experiencing the loss of control of the soft palate because it could not properly contract, a condition known as cranial nerve palsy. The condition causes snorting during talking and difficulty swallowing food. The food often lodges above the soft palate. These symptoms were 80% eliminated at 300 mg/kg of famciclovir per day.

Assay [7] relates to patient with Raynaud's syndrome. The assay is described as follows: Raynaud's syndrome signs or symptoms. Type of assay: in vivo, human. To be noted: 300 mg/kg per day in four equal doses over 24 hours.
From the text: as §1, §2
The patient also presented signs or symptoms of Raynaud's syndrome, which involves marked or severe vasoconstriction and ischemia in the extremities, usually fingers and toes. As a result, the patient often experienced extreme pain, cold, discoloration, lack of sensation and weakness in the affected parts. […] The signs or symptoms returned when the frequency of taking the drug was lowered from once every 6 hours to once every 10 hours.

Assay [8] concerns patient with muscle spasms, pain and inability to sleep. In words: muscle spasms, pain, sleep and restless leg. In kind it is in vivo, human. To be noted: 300 mg/kg per day. As to the method: Severe sleep disturbance can be caused by inability to relax the axial muscles due to hypertonus. It is not appreciated by those without hypertonus of the muscles, but it is necessary for the somatic muscles to relax to a predetermined level, before sleep will commence. Hypertonus can prevent that relaxation and prevent sleep. One patient was unable to achieve normal REM sleep for over 15 years, when their autoimmune disease was treated with the current treatments, which are essentially ineffective. However, this same patient was restored to essentially […] on the doses of this invention. Additionally this patient suffered from severe “restless leg syndrome” which is caused by the same disease conditions of the sympathetic chain as causes all above. […] At the levels of '114 these benefits were only slightly apparent, with the doses of this application normal REM sleep is restored. And, if the drug levels of the 2-aminopurines are allowed to drop for only a few hours the inability to sleep, and the severe restless leg return to the afflicted. […] The relationship of the appearance or suppression of the signs or symptoms of sleep disturbance to the onboard drug level is consistent and dramatic. […] The patient was administered 300 mg/kg of famciclovir per day and experienced relief of 90% of the spasms and pain. […]

The subject of assay [9] is patient with reduced renal function. In words: creatinine clearance (renal function) in a patient with autoimmune disease. In kind it is in vivo, human. An excerpt:
Patients with autoimmune disease often suffer significant inflammation of the kidneys, often causing renal dysfunction and/or destruction, which can lead to death in the absence of dialysis. A clinical laboratory measure of kidney function is creatinine clearance. Creatinine is the metabolic product formed from creatine when food is converted to energy. Creatinine is produced at a steady state and is affected very little by diet or normal physical activities. When a subject's kidneys are damaged and/or cannot function normally, the amount of creatinine excreted in the subject's urine decreases while its level in the blood increases. Thus, the blood level of creatinine indicates how well the kidneys are working. A high level generally means the kidneys are not functioning properly. A creatinine clearance test is performed both on a blood sample taken from the subject's vein and on a sample of urine collected over 24 hours. […] A normal creatinine level is less than 1, and normal CrCl levels are typically >100 mL/min. Dialysis is usually required when CrCl levels fall below about 20 mL/min.

Read-outs that look alike come from different tables or passages of the source.

For `CC(=O)OCC(CCn1cnc2cnc(N)nc21)COC(C)=O` [famciclovir, 2-amino-9-(4-acetoxy-3-acetoxymethylbut-1-yl)purine], the creatinine clearance level in assay [1] was 89 mL/min. Also, the fibromyalgia pain reduced entry in assay [2] is given as “about 95%”. Also, the nutcracker esophagus condition entry in assay [3] was “completely relieved and prevented”. Moreover, the posture in kyphosis entry in assay [4] was “improved”. For the same compound, the IBS pain relieved result in assay [5] (300 mg/kg per day) was “about 90%”. Also, the distended waist circumference in [5] (300 mg/kg per day, over a period of days, reduced from 44 inches) was 38 inches. For the same compound, the IBS pain spasms result in [5] (maintenance level of 300 mg/kg per day) is recorded as “dramatically decreased”. The “soft palate muscle strength” value in [6] (300 mg/kg daily, over a six-month period) is listed as “gradually returned”. Also, the “cranial nerve palsy symptoms eliminated” value in assay [6] (300 mg/kg per day) was 80%. In assay [7], the “Raynaud's signs or symptoms (pain, cold, discoloration, lack of sensation, weakness)” value is on record as “dramatically abated”. In addition, in assay [8], the “relief of the spasms and pain” value is recorded as 90%; the “severe bowel and back pain and spasms relieved” value was “about 80%”. In assay [9] (dose increased from '114 level to levels of this application, from 89 mL/min, 100 kg man), this compound had a creatinine clearance level of 143 mL/min. The impaired kidney function result in [9] (more than 250 mg/kg of body weight per day) is “significant improvement”.
